The record followed here is PubChem BioAssay (NCI).

Several values for one entry are separate records, joined by “and”; a condition that tells them apart may be missing. Identical values can stand only once.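 Following 48 hours of exposure in 96-well plates, responses at five concentrations were used to interpolate endpoints linearly. GI50: concentration for 50% inhibition of growth. TGI: concentration producing complete growth inhibition.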

The test system of one assay is COLO 205 colon. The assay can be described thus: DTP human tumour cell line panel, 48 h.
On to `COC12C=C/C(=C(/C(=O)OCc3ccncc3)C(=O)CCCCCCCCC3(OC)C=C/C(=C(/C(=O)OCc4ccncc4)C(=O)CCCCCCCC1)O3)O2`, for which the GI50 (usually the concentration at which growth is held to half of that of the control) is 780 nM and the TGI (commonly the concentration giving total growth inhibition) was 2180 nM.
Regarding `CCOC(=O)C(C)(C)Oc1ccc2c(C)c(-c3ccc(Cl)cc3)c(=O)oc2c1`, the TGI is greater than 100000 nM.
Turning to `COc1cc(CNCCCN2C(=O)c3ccc4c5c(ccc(c35)C2=O)C(=O)N(CCCNCc2cc(OC)c(OC)c(OC)c2)C4=O)cc(OC)c1OC`, the GI50 is 139 nM and the TGI came to 352 nM.
As for `O=c1[nH]c(=O)n(C2CC(O)C(CO)O2)cc1CO` (configuration not stated), the GI50 is greater than 100000 nM and the TGI was greater than 100000 nM.
`Cc1nc2cnc(N)c(C#Cc3cncc(C(=O)Nc4ccc(CN5CCN(C)CC5)c(C(F)(F)F)c4)c3)c2nc1C`: the concentration for 50% growth inhibition (GI50) is 55.8 nM and the TGI amounted to 634 nM.
Consider `Cc1csc(Nc2nc(-c3cccc(Br)c3)nc(C(Cl)(Cl)Cl)n2)n1`, for which the GI50 was 855 nM and the TGI is greater than 23300 nM.
On to `CS(=O)(=O)CCCn1c(=O)c(Oc2ccc(F)cc2F)cc2cnc(NC3CCOCC3)nc21`, for which the GI50 was greater than 25000 nM and the TGI is greater than 25000 nM.
In the case of `N#C/C=C(\c1ccc([N+](=O)[O-])cc1)n1nnc2cc(Cl)c(Cl)cc21`, the GI50 is 1910 nM and the TGI worked out at 3910 nM.
Molecule `O=C(CC(O)(C(F)(F)F)C(F)(F)F)c1cc(CC(=O)C(O)(C(F)(F)F)C(F)(F)F)cc(CC(=O)C(O)(C(F)(F)F)C(F)(F)F)c1` had a TGI of 3060 nM.
Consider `CCc1c(OC(C)=O)c2c(NC3OC(COC(C)=O)C(OC(C)=O)C(OC(C)=O)C3OC(C)=O)nc(OC)nc2oc1=O` (configuration not stated), for which the TGI is greater than 100000 nM.
Same read-out and setting: the value for `O=c1c2ccccc2sc2cccc(NCCCN3CCN(CCCNc4cccc5sc6ccccc6c(=O)c45)CC3)c12` was greater than 100000 nM.
Turning to `CC1(C)OCCn2c1nc1c(N3CCOCC3)nc(-c3cnc(N)nc3)nc12`, the concentration for 50% growth inhibition (GI50) is 217 nM and the TGI amounted to 5950 nM.
As for `O=C(c1c(F)ccc(NS(=O)(=O)N2CC[C@@H](F)C2)c1F)c1c[nH]c2ncc(-c3cnc(C4CC4)nc3)cc12`, the GI50 is 4.82 nM and < 10 nM; the TGI is > 7600 nM and 12200 nM.
For `COc1cc(-c2nn(-c3cccc(NC(=O)Nc4ccc(Cl)c(Cl)c4)c3)cc2-c2ccncc2)ccc1Cl`, the GI50 was 937 nM and the TGI stood at 1720 nM.
Molecule `O=[N+]([O-])c1ccc(-n2nnc(C3=NCCN3)c2-c2ccc(Cl)cc2)cc1` returned a TGI greater than 100000 nM.
The molecule `O=C(c1ccc(Cl)cc1)c1cnc(Nc2ccccc2Cl)s1` showed a TGI greater than 100000 nM.
Regarding `Nc1nc(N)c(N=Nc2ccc([As](=O)(O)O)cc2)c(=O)[nH]1`, the TGI was greater than 100000 nM.

The subject of another assay is SNB-75 CNS. The assay can be described thus: DTP human tumour cell line panel, 48 h.
Regarding `COC12C=C/C(=C(/C(=O)OCc3ccncc3)C(=O)CCCCCCCCC3(OC)C=C/C(=C(/C(=O)OCc4ccncc4)C(=O)CCCCCCCC1)O3)O2`, the GI50 is 779 nM and the total growth inhibition concentration (TGI) was 1970 nM.
Turning to `CCOC(=O)C(C)(C)Oc1ccc2c(C)c(-c3ccc(Cl)cc3)c(=O)oc2c1`, the TGI was greater than 100000 nM.
As to `COc1cc(CNCCCN2C(=O)c3ccc4c5c(ccc(c35)C2=O)C(=O)N(CCCNCc2cc(OC)c(OC)c(OC)c2)C4=O)cc(OC)c1OC`, the GI50 was 589 nM and the TGI was 1330 nM.
As to `O=c1[nH]c(=O)n(C2CC(O)C(CO)O2)cc1CO` (configuration not stated), the GI50 was greater than 100000 nM and the TGI is greater than 100000 nM.
For the molecule `Cc1nc2cnc(N)c(C#Cc3cncc(C(=O)Nc4ccc(CN5CCN(C)CC5)c(C(F)(F)F)c4)c3)c2nc1C`, the GI50 was 1350 nM and the TGI came to 3390 nM.
Taken in the same sequence, the figures for `Cc1csc(Nc2nc(-c3cccc(Br)c3)nc(C(Cl)(Cl)Cl)n2)n1` were 1360 nM and greater than 27900 nM.
Take `CS(=O)(=O)CCCn1c(=O)c(Oc2ccc(F)cc2F)cc2cnc(NC3CCOCC3)nc21`: the GI50 is greater than 25000 nM and the TGI is greater than 25000 nM.
Regarding `N#C/C=C(\c1ccc([N+](=O)[O-])cc1)n1nnc2cc(Cl)c(Cl)cc21`, the GI50 was 2130 nM and the TGI was 8110 nM.
For the molecule `O=C(CC(O)(C(F)(F)F)C(F)(F)F)c1cc(CC(=O)C(O)(C(F)(F)F)C(F)(F)F)cc(CC(=O)C(O)(C(F)(F)F)C(F)(F)F)c1`, the TGI amounted to 6730 nM. In other words, the single-digit micromolar range.
The same measure, in the same setting: the value for `CCc1c(OC(C)=O)c2c(NC3OC(COC(C)=O)C(OC(C)=O)C(OC(C)=O)C3OC(C)=O)nc(OC)nc2oc1=O` (configuration not stated) was greater than 100000 nM; that for `O=c1c2ccccc2sc2cccc(NCCCN3CCN(CCCNc4cccc5sc6ccccc6c(=O)c45)CC3)c12` was greater than 100000 nM.
Regarding `CC1(C)OCCn2c1nc1c(N3CCOCC3)nc(-c3cnc(N)nc3)nc12`, the GI50 was 56.3 nM and the TGI worked out at 817 nM.
In the case of `O=C(c1c(F)ccc(NS(=O)(=O)N2CC[C@@H](F)C2)c1F)c1c[nH]c2ncc(-c3cnc(C4CC4)nc3)cc12`, the GI50 is 1770 nM and 2170 nM; the TGI was > 10000 nM and 12800 nM.
`COc1cc(-c2nn(-c3cccc(NC(=O)Nc4ccc(Cl)c(Cl)c4)c3)cc2-c2ccncc2)ccc1Cl`: the GI50 was 1050 nM and the TGI was 5170 nM.
As for `O=[N+]([O-])c1ccc(-n2nnc(C3=NCCN3)c2-c2ccc(Cl)cc2)cc1`, the TGI is greater than 100000 nM.
Take `O=C(c1ccc(Cl)cc1)c1cnc(Nc2ccccc2Cl)s1`: the TGI came to 39200 nM.
`Nc1nc(N)c(N=Nc2ccc([As](=O)(O)O)cc2)c(=O)[nH]1` yielded a TGI greater than 100000 nM.

For another assay, the system named is A498 renal. The assay can be described thus: DTP human tumour cell line panel, 48 h.
Turning to `COC12C=C/C(=C(/C(=O)OCc3ccncc3)C(=O)CCCCCCCCC3(OC)C=C/C(=C(/C(=O)OCc4ccncc4)C(=O)CCCCCCCC1)O3)O2`, the GI50 is 780 nM and the TGI turned out to be 1480 nM.
`CCOC(=O)C(C)(C)Oc1ccc2c(C)c(-c3ccc(Cl)cc3)c(=O)oc2c1`: the TGI was greater than 100000 nM.
As to `COc1cc(CNCCCN2C(=O)c3ccc4c5c(ccc(c35)C2=O)C(=O)N(CCCNCc2cc(OC)c(OC)c(OC)c2)C4=O)cc(OC)c1OC`, the GI50 was 627 nM and the TGI was found to be 1410 nM.
As for `O=c1[nH]c(=O)n(C2CC(O)C(CO)O2)cc1CO` (configuration not stated), the GI50 was greater than 100000 nM and the TGI is greater than 100000 nM.
As for `Cc1nc2cnc(N)c(C#Cc3cncc(C(=O)Nc4ccc(CN5CCN(C)CC5)c(C(F)(F)F)c4)c3)c2nc1C`, the GI50 was 180 nM and the TGI amounted to 1170 nM.
In the case of `Cc1csc(Nc2nc(-c3cccc(Br)c3)nc(C(Cl)(Cl)Cl)n2)n1`, the GI50 is 1060 nM and the TGI came out at 2470 nM.
In the case of `CS(=O)(=O)CCCn1c(=O)c(Oc2ccc(F)cc2F)cc2cnc(NC3CCOCC3)nc21`, the GI50 is greater than 25000 nM and the TGI was greater than 25000 nM.
